Data taken from PubChem BioAssay AID2060899 (Molecular Pharmacology Branch, DTP, NCI, 2025).

Test system: 565726-208-R1-J5-PDC complex spheroids, growth inhibition
Test: Anticancer human tumor 565726-208-R1-J5-PDC patient-derived pancreatic adenocarcinoma cell line growth inhibition [RAS]
Conditions: for IC50: curve of first compound; for viability, T/C: stronger effect = lower value
In short: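 Multi-cell-type spheroids: tumor cells plus HUVEC endothelial cells and mesenchymal stem cells. RAS-pathway inhibitors were combined with targeted agents, each dosed in half-log steps down from clinical Cmax, or from 10 microM when Cmax was unknown.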
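Further: spheroids exposed to compounds for seven days before readout.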
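Wherever viability, T/C is given: 100% = DMSO vehicle control viability.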

What does the source list for Nc1ccn(C2OC(CO)C(O)C2(F)F)c(=O)n1 (centres undefined) + C=CC(=O)N1CCN(c2nc(OCC3CCCN3C)nc3c(F)c(-c4nc(N)cc(C)c4C(F)(F)F)c(Cl)cc23)C(C)C1?
IC50 (second compound 0.00316 µM): 94.9 nM; IC50 (second compound 0.01 µM): 93.4 nM; IC50 (second compound 0.0316 µM): > 1000 nM; IC50 (second compound 0.1 µM): 230 nM; IC50 (second compound 0.316 µM): 88.8 nM; IC50 (second compound 1 µM): 1000 nM; viability, T/C (second compound 0.00316 µM, first compound 0.00316 µM): 89.3%; viability, T/C (second compound 0.00316 µM, first compound 0.01 µM): 151%; viability, T/C (second compound 0.00316 µM, first compound 0.0316 µM): 76.5%; viability, T/C (second compound 0.00316 µM, first compound 0.1 µM): 54.6%; viability, T/C (second compound 0.00316 µM, first compound 0.316 µM): 52.6%; viability, T/C (second compound 0.00316 µM, first compound 1 µM): 39%; viability, T/C (second compound 0.01 µM, first compound 0.00316 µM): 113%; viability, T/C (second compound 0.01 µM, first compound 0.01 µM): 149%; viability, T/C (second compound 0.01 µM, first compound 0.0316 µM): 84.9%; viability, T/C (second compound 0.01 µM, first compound 0.1 µM): 48%; viability, T/C (second compound 0.01 µM, first compound 0.316 µM): 50.5%; viability, T/C (second compound 0.01 µM, first compound 1 µM): 44.8%; viability, T/C (second compound 0.0316 µM, first compound 0.00316 µM): 148%; viability, T/C (second compound 0.0316 µM, first compound 0.01 µM): 160%; viability, T/C (second compound 0.0316 µM, first compound 0.0316 µM): 77.1%; viability, T/C (second compound 0.0316 µM, first compound 0.1 µM): 59.4%; viability, T/C (second compound 0.0316 µM, first compound 0.316 µM): 48.9%; viability, T/C (second compound 0.0316 µM, first compound 1 µM): 49%; viability, T/C (second compound 0.1 µM, first compound 0.00316 µM): 156%; viability, T/C (second compound 0.1 µM, first compound 0.01 µM): 134%; viability, T/C (second compound 0.1 µM, first compound 0.0316 µM): 89.5%; viability, T/C (second compound 0.1 µM, first compound 0.1 µM): 58.1%; viability, T/C (second compound 0.1 µM, first compound 0.316 µM): 47.5%; viability, T/C (second compound 0.1 µM, first compound 1 µM): 46.3%; viability, T/C (second compound 0.316 µM, first compound 0.00316 µM): 139%; viability, T/C (second compound 0.316 µM, first compound 0.01 µM): 134%; viability, T/C (second compound 0.316 µM, first compound 0.0316 µM): 72.7%; viability, T/C (second compound 0.316 µM, first compound 0.1 µM): 46.4%; viability, T/C (second compound 0.316 µM, first compound 0.316 µM): 52.7%; viability, T/C (second compound 0.316 µM, first compound 1 µM): 41.5%; viability, T/C (second compound 1 µM, first compound 0.00316 µM): 153%; viability, T/C (second compound 1 µM, first compound 0.01 µM): 142%; viability, T/C (second compound 1 µM, first compound 0.0316 µM): 82.3%; viability, T/C (second compound 1 µM, first compound 0.1 µM): 58.3%; viability, T/C (second compound 1 µM, first compound 0.316 µM): 55.3%; viability, T/C (second compound 1 µM, first compound 1 µM): 45.6%

How did the IC50 (second compound 0.000949 µM) turn out when C=CC(=O)Nc1cc(Nc2nccc(-c3cn(C)c4ccccc34)n2)c(OC)cc1N(C)CCN(C)C + CCn1c(-c2cc(N3CCN(C)CC3)cnc2C(C)OC)c2c3cc(ccc31)-c1csc(n1)CC(NC(=O)C1CC1C)C(=O)N1CCCC(N1)C(=O)OCC(C)(C)C2 was run?
The IC50 was 185 nM.

And the IC50 (second compound 0.003 µM)?
Its IC50 is 11 nM.

What about the IC50 (second compound 0.00949 µM) of the same compound?
Its IC50 is less than 3.16 nM.

What about the IC50 (second compound 0.03 µM) of the same compound?
Its IC50 is less than 3.16 nM.

And the IC50 (second compound 0.0949 µM)?
Its IC50 is less than 3.16 nM.

What about the IC50 (second compound 0.3 µM) of the same compound?
The IC50 was less than 3.16 nM.

And the viability, T/C (second compound 0.000949 µM, first compound 0.00316 µM)?
Its viability, T/C is 63.2%.

And the viability, T/C (second compound 0.000949 µM, first compound 0.01 µM)?
The viability, T/C was 62.6%.

And the viability, T/C (second compound 0.000949 µM, first compound 0.0316 µM)?
Its viability, T/C is 59.9%.

And the viability, T/C (second compound 0.000949 µM, first compound 0.1 µM)?
The viability, T/C was 56.4%.

What about the viability, T/C (second compound 0.000949 µM, first compound 0.316 µM) of the same compound?
The viability, T/C was 44.6%.

What about the viability, T/C (second compound 0.000949 µM, first compound 1 µM) of the same compound?
Its viability, T/C is 34.3%.

What about the viability, T/C (second compound 0.003 µM, first compound 0.00316 µM) of the same compound?
The viability, T/C was 58.9%.

What about the viability, T/C (second compound 0.003 µM, first compound 0.01 µM) of the same compound?
The viability, T/C was 44.3%.

What about the viability, T/C (second compound 0.003 µM, first compound 0.0316 µM) of the same compound?
The viability, T/C was 49.2%.

What about the viability, T/C (second compound 0.003 µM, first compound 0.1 µM) of the same compound?
The viability, T/C was 38.8%.

And the viability, T/C (second compound 0.003 µM, first compound 0.316 µM)?
The viability, T/C was 36.1%.

And the viability, T/C (second compound 0.003 µM, first compound 1 µM)?
The viability, T/C was 28.2%.

What about the viability, T/C (second compound 0.00949 µM, first compound 0.00316 µM) of the same compound?
Its viability, T/C is 43.2%.

What about the viability, T/C (second compound 0.00949 µM, first compound 0.01 µM) of the same compound?
The viability, T/C was 38.3%.

And the viability, T/C (second compound 0.00949 µM, first compound 0.0316 µM)?
The viability, T/C was 34.9%.

What about the viability, T/C (second compound 0.00949 µM, first compound 0.1 µM) of the same compound?
The viability, T/C was 30.9%.

And the viability, T/C (second compound 0.00949 µM, first compound 0.316 µM)?
Its viability, T/C is 24.7%.

And the viability, T/C (second compound 0.00949 µM, first compound 1 µM)?
The viability, T/C was 20.4%.

What about the viability, T/C (second compound 0.03 µM, first compound 0.00316 µM) of the same compound?
The viability, T/C was 30.4%.

What about the viability, T/C (second compound 0.03 µM, first compound 0.01 µM) of the same compound?
Its viability, T/C is 30.1%.

What about the viability, T/C (second compound 0.03 µM, first compound 0.0316 µM) of the same compound?
The viability, T/C was 29.6%.

And the viability, T/C (second compound 0.03 µM, first compound 0.1 µM)?
Its viability, T/C is 25.1%.

What about the viability, T/C (second compound 0.03 µM, first compound 0.316 µM) of the same compound?
Its viability, T/C is 19%.

And the viability, T/C (second compound 0.03 µM, first compound 1 µM)?
Its viability, T/C is 15.5%.

And the viability, T/C (second compound 0.0949 µM, first compound 0.00316 µM)?
The viability, T/C was 28.3%.

What about the viability, T/C (second compound 0.0949 µM, first compound 0.01 µM) of the same compound?
Its viability, T/C is 24.6%.

And the viability, T/C (second compound 0.0949 µM, first compound 0.0316 µM)?
Its viability, T/C is 21.4%.

What about the viability, T/C (second compound 0.0949 µM, first compound 0.1 µM) of the same compound?
Its viability, T/C is 18.2%.

What about the viability, T/C (second compound 0.0949 µM, first compound 0.316 µM) of the same compound?
The viability, T/C was 16.4%.

And the viability, T/C (second compound 0.0949 µM, first compound 1 µM)?
The viability, T/C was 14.7%.

And the viability, T/C (second compound 0.3 µM, first compound 0.00316 µM)?
Its viability, T/C is 23.4%.

What about the viability, T/C (second compound 0.3 µM, first compound 0.01 µM) of the same compound?
The viability, T/C was 21.2%.

What about the viability, T/C (second compound 0.3 µM, first compound 0.0316 µM) of the same compound?
The viability, T/C was 18.8%.

And the viability, T/C (second compound 0.3 µM, first compound 0.1 µM)?
Its viability, T/C is 16.3%.

And the viability, T/C (second compound 0.3 µM, first compound 0.316 µM)?
The viability, T/C was 15.5%.

What about the viability, T/C (second compound 0.3 µM, first compound 1 µM) of the same compound?
The viability, T/C was 11.6%.
